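Briefly, cells in 96-well plates were exposed to five compound concentrations for 48 h, and endpoints were estimated by linear interpolation. GI50: concentration for 50% inhibition of growth. TGI: total growth inhibition.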
Key:
Experiment in all cases: growth of human tumour cells (NCI), 48 h
[1] = test system: NCI-H460 lung
[2] = test system: SF-539 CNS
[3] = test system: ACHN renal
[4] = test system: U251 CNS
[5] = test system: A549 NSCLC
[6] = test system: OVCAR-8 ovarian
[7] = test system: SK-MEL-2 melanoma
[8] = test system: SK-MEL-5 melanoma
[9] = test system: KM12 colon
[10] = test system: HS 578T breast

Structure (SMILES) | TGI [1] [µM] | TGI [2] [µM] | TGI [3] [µM] | TGI [4] [µM] | TGI [5] [µM] | TGI [6] [µM] | TGI [7] [µM] | TGI [8] [µM] | TGI [9] [µM] | GI50 [2] [µM] | GI50 [3] [µM] | GI50 [7] [µM] | GI50 [10] [µM] | TGI [10] [µM] | GI50 [1] [µM] | GI50 [4] [µM] | GI50 [5] [µM] | GI50 [8] [µM] | GI50 [6] [µM] | GI50 [9] [µM]
Cc1cc2c(C)nn(Cc3ccccc3Cl)c2c(C#N)c1C | > 100 | > 100 | > 100 | > 100 | > 100 | > 100 | > 100 | – | – | – | – | – | – | – | – | – | – | – | – | –
C=C1CCC2(C(C)=O)COC1(C)O2 (stereo not drawn) | > 100 | > 100 | > 100 | > 100 | > 100 | > 100 | – | > 100 | > 100 | – | – | – | – | – | – | – | – | – | – | –
C/C(CC(=O)Nc1cccc(C)c1C)=N\NC(N)=S | > 100 | > 100 | > 100 | > 100 | > 100 | > 100 | > 100 | > 100 | > 100 | – | – | – | – | – | – | – | – | – | – | –
C1C[S][Ge]2([S]CCS1)[S]CCSCC[S]2 | – | > 100 | > 100 | – | – | – | > 100 | – | – | > 100 | > 100 | > 100 | – | – | – | – | – | – | – | –
COc1cc(/C=C2\CC3C4CCC5=CC(=O)CC[C@]5(C)C4CC[C@]3(C)C2=O)ccc1OCCN1CCCCC1 (stereo partly drawn) | 14.1 | – | 13.1 | 11.2 | 41.1 | 62.5 | > 100 | 3.09 | 3.52 | – | 3.84 | 22 | 4.79 | 23 | 3.43 | 3.2 | 11 | 1.51 | 15.9 | 1.69
Cc1cc(C)c(C2=NO[C@@H]3C(=O)N(c4ccc(Cc5ccc(N6C(=O)[C@H]7C(c8c(C)cc(C)cc8C)=NO[C@H]7C6=O)cc5)cc4)C(=O)[C@H]23)c(C)c1 | – | > 100 | – | – | > 100 | > 100 | > 100 | > 100 | > 100 | – | – | – | – | – | – | – | – | – | – | –
CCOC(=O)CP(=S)(S)c1ccccc1 (stereo not drawn) | > 100 | > 100 | > 100 | > 100 | > 100 | > 100 | > 100 | > 100 | > 100 | – | – | – | – | – | – | – | – | – | – | –
COC(=O)C1=Cc2cn(S(=O)(=O)c3ccc(C)cc3)c3cccc(c23)C(C=C(C)C)N1C(C)=O (stereo not drawn) | – | > 100 | > 100 | > 100 | > 100 | > 100 | 29.5 | > 100 | > 100 | – | – | – | – | – | – | – | – | – | – | –
CN(CCCCN)c1ccc2c(=O)[nH][nH]c(=O)c2c1 | > 100 | > 100 | > 100 | > 100 | > 100 | – | > 100 | – | > 100 | – | – | – | – | – | – | – | – | – | – | –
Cc1cc(C)c(C(=O)/C(=C/c2ccccc2)c2ccccc2)c(C)c1 | > 100 | > 100 | > 100 | > 100 | > 100 | > 100 | 43.4 | > 100 | > 100 | – | – | – | – | – | – | – | – | – | – | –
O=c1sc(-c2nc3ccccc3[nH]2)c(/N=C/c2ccccc2)n1-c1ccccc1 | – | > 100 | > 100 | > 100 | > 100 | > 100 | > 100 | > 100 | > 100 | – | – | – | – | – | – | – | – | – | – | –
Cc1ccc(S(=O)(=O)OC2CSSCC2OS(=O)(=O)c2ccc(C)cc2)cc1 (stereo not drawn) | 31.8 | 22.8 | 28.9 | 27.2 | 31.9 | 26.1 | 29.1 | 29.7 | 28.3 | – | – | – | – | – | – | – | – | – | – | –
CN(CC1NCCCC1O)C12CC3CC(CC(C3)C1)C2 (stereo not drawn) | > 100 | > 100 | > 100 | > 100 | > 100 | > 100 | – | – | > 100 | – | – | – | – | – | – | – | – | – | – | –
CC(C)OC(=O)c1cccnc1/C=N/O | > 100 | > 100 | > 100 | > 100 | > 100 | > 100 | > 100 | > 100 | > 100 | – | – | – | – | – | – | – | – | – | – | –
O=C(NCCCl)NCc1ccccc1 | > 100 | – | > 100 | > 100 | > 100 | > 100 | > 100 | > 100 | > 100 | – | – | – | – | > 100 | – | – | – | – | – | –
c1ccc(N2N=NC3C4CC(C5c6ccccc6C45)C32)cc1 (stereo not drawn) | > 100 | > 100 | – | > 100 | > 100 | > 100 | – | 38.3 | > 100 | – | – | – | – | – | – | – | – | – | – | –
COc1cc(OC)c(/C=C/C(=O)c2c(O)cc(OC)c(C3CCN(C)CC3)c2OC)c(OC)c1 | – | 3.12 | 2.98 | 2.52 | 2.97 | – | 3.24 | 3.07 | 3.38 | 1.69 | 1.58 | 1.78 | 1.81 | 4.29 | – | 1.27 | 1.57 | 1.64 | – | 1.71
c1cnc2nc3n(c2c1)CSC3 | > 100 | > 100 | > 100 | > 100 | > 100 | > 100 | > 100 | > 100 | > 100 | – | – | – | – | – | – | – | – | – | – | –
Cc1ccnc(NC(c2ccccc2)c2ccc3cccnc3c2O)c1 (stereo not drawn) | 6.34 | 19.2 | > 100 | 12.7 | 45.1 | 16.3 | – | 15.6 | > 100 | 3.35 | 3.46 | – | 3.21 | 35.1 | 2.16 | 2.85 | 3.99 | 4.31 | 3.23 | 4.15
COc1c(OC)c(OC)c(-c2cc(=O)c3c(OC)c(OC)c(OC)c(OC)c3o2)c(OC)c1OC | > 100 | > 100 | > 100 | > 100 | > 100 | > 100 | > 100 | 74.9 | – | – | – | – | – | > 100 | – | – | – | – | – | –
O=Cc1cn(S(=O)(=O)c2ccccc2)c2ccccc12 | > 100 | > 100 | > 100 | > 100 | > 100 | > 100 | – | – | > 100 | – | – | – | – | – | – | – | – | – | – | –
COC(=O)c1cc2c(nc1C)-c1ccccc1OS2(=O)=O | > 100 | > 100 | > 100 | > 100 | > 100 | > 100 | – | > 100 | > 100 | – | – | – | – | – | – | – | – | – | – | –

Reference: PubChem BioAssay (NCI)
